The values below come from patent publication US9931679B2, “Method for cleaning hard surfaces” (KIMBERLY-CLARK WORLDWIDE, INC., priority 2013, dated 2018).

The subject of the experiment is Pseudomonas aeruginosa (ATCC 27853). The experiment is described as follows: Zone of Inhibition Test (AATCC 147-1998, modified). Conditions: diameter of inhibited colony formation; 1.5 by 1.5 cm test material on inoculated agar plate, 48 hours at ambient temperature. The experiment is classed as cell-based. On the procedure: Zone of inhibition testing with a variety of gram negative and gram positive bacteria was performed. The test material was brought into contact with a known amount of test microorganisms on an agar plate for 48 hours at ambient temperature. At the end of the contact time the diameter of inhibited colony formation (zone of inhibition) surrounding the test material was measured. […] Referenced method AATCC 147-1998 “Antibacterial Activity Assessment of Textile Materials: Parallel Streak Method” with changes for following Zone of Inhibition procedure (AATCC is “American Association of Textile Chemists and Colorists” located in Research Triangle Park, N.C.): Organisms used in this study were Escherichia coli (ATCC 11229)/Staphylococcus aureus (ATCC 6538)/Pseudomonas aeruginosa (ATCC 27853) (ATCC is “American Type Culture Collection” an organization in Manassas, Va.). Washed cells were diluted in Butterfield's Phosphate buffer to a target titer of approximately 10^8 colony forming units (CFU)/mL. Agar plates for testing were brought to room temperature prior to inoculation. A sterile applicator swab was placed in cell suspension and excess fluid was expressed using the side of the centrifuge tube. […] At the end of the contact time, the diameter of inhibited colony formation (zone of inhibition) surrounding the test material was measured.

On to `CN[C@H](CC(C)C)C(=O)N[C@H]1C(=O)N[C@@H](CC(N)=O)C(=O)N[C@H]2C(=O)N[C@H]3C(=O)N[C@H](C(=O)N[C@H](C(=O)O)c4cc(O)cc(O)c4-c4cc3ccc4O)[C@H](O)c3ccc(c(Cl)c3)Oc3cc2cc(c3O[C@@H]2O[C@H](CO)[C@@H](O)[C@H](O)[C@H]2O[C@H]2C[C@](C)(N)[C@H](O)[C@H](C)O2)Oc2ccc(cc2Cl)[C@H]1O` [Positive Control, vancomycin], for which the “P. aeroginosa ZOI* (cm)” value was 1.9 cm.
